Data: paper PMC13224100, “Esterase-Responsive Mitochondria-Targeted Hydropersulfide Donors Mitigate Doxorubicin Cardiotoxicity While Preserving Anticancer Activity” (Angewandte Chemie (International ed. in English), 2025)

Legend:
[1] = Cytoprotection against DOX-induced toxicity, CCK-8 assay; type: cell-based; settings: rat, H9c2 cells; DOX 5 μM, 24 h, CCK-8; read-out: cell viability, DOX alone
Experimental: (§1) We evaluated the cytoprotective effects of RSSH precursors against DOX-induced cardiotoxicity in H9c2 cardiomyoblasts. First, we assessed the cytotoxicity of the RSSH donors (AST-2, APT-1, AST-2-TPP, and APT-1-TPP) using the CCK-8 assay.[24] […] To evaluate cytoprotection, H9c2 cells were pretreated with RSSH donors for 4 h, followed by 24 h co-treatment with DOX (5 μM). As expected, DOX alone reduced cell viability to ca. 50% (Figure 4a). […] Although both compounds were protective, no enhancement of potency was observed upon TPP conjugation. […] A distinctive feature of our study is the direct comparison between mitochondria-targeted and non-targeted RSSH donors. […] TPP conjugation only modestly enhances the cytoprotective effects of RSSH donors under our experimental conditions. This outcome may reflect the intrinsic high efficacy of non-targeted RSSH donors, thereby limiting the additional benefit of mitochondrial targeting.
(§2) Figure 4. Protective effects of RSSH donors against DOX-induced cytotoxicity in H9c2 cells. Cells were pretreated with RSSH donors for 4 h, followed by exposure to DOX (5 μM) for an additional 24 h. Cell viability was assessed using the cell counting Kit-8 (CCK-8) assay. Results are expressed as mean ± SEM, n = 3; *P < 0.05, **P < 0.01, ***P < 0.001, ****P < 0.0001. Ctl = vehicle-treated group (0.01% DMSO in medium). […]
(§3) Cytoprotective Effects of RSSH Donors against Doxorubicin Toxicity
(§4) Cytoprotective studies were performed as previously described.[8] Briefly, H9c2 cells, HepG2 cells, MDA-MB-468 cells, and MCF-7 cells were seeded at a density of 7 x 10^3 cells/well. […] Additionally, in the vehicle control group, cells were treated with medium (DMEM with 10% FBS) containing 0.01% DMSO only. The cells were then further incubated for an additional 4 h before being treated with DOX (10 μL/well, with final concentration of 5 μM). After a 24 h co-incubation with DOX, each well was carefully washed three times with PBS (pH 7.4) and 100 μL o f F B S-free medium containing 10% v/v CCK-8 (Dojindo) was added. The plates were then incubated for 1-2 h before measuring absorbance at […]
(§5) The relative % cell viability was calculated as 100 times the ratio of Abs450 (RSSH donor + DOX-exposed) to Abs450 (vehicle, non-DOX-exposed). Each treatment condition was performed in 6 technical replicates per biological replicate, and the experiment was independently repeated three times (n = 3 biological replicates). Data are presented as mean ± SEM. […]

[2] = test system: H9c2 cells; experiment: Mitochondrial membrane potential (TMRM) under DOX; type: cell-based; settings: DOX 5 μM, 24 h, TMRM
Experimental: (§6) Figure 6. a) Basal sulfane sulfur (SS) levels in H9c2 cardiomyocyte, MDA-MB-468, MCF-7, and HepG2 cell lines as detected by SSP4 fluorescence. b) Representative images and c) basal levels of mitochondrial membrane potential (MMP) in H9c2 and cancer cells (MDA-MB-468, MCF-7, and HepG2). d) Impact of APT-1 (25 μM) or APT-1-TPP (25 μM) on MMP in DOX (5 μM)-treated (d) H9c2 and e) HepG2 cells. Impact of APT-1 (25 μM) and APT-1-TPP (25 μM) on ATP levels in DOX (5 μM)-treated f) H9c2 and g) HepG2 cells. Results are expressed as mean ± SEM, n = 3–6; *P < 0.05, **P < 0.01, ***P < 0.001, ****P < 0.0001. Significances in (a) and (c) are presented with respect to H9c2 cells.
(§7) We then examined how RSSH donors influence MMP during DOX exposure. As expected, DOX alone induced mitochondrial depolarization in H9c2 cells, reducing MMP to ca. 50% of control (Figure 6d). […] To complement these observations, we quantified intracellular ATP levels as a functional readout of mitochondrial activity. […]
Mitochondrial Membrane Potential Measurements
Mitochondrial membrane potential was measured using Image-iT™ TMRM Reagent (Cat#I34361, Invitrogen, USA) according to the manufacturer's protocols. […]
The cells were incubated for an additional 24 h. After completion of treatment, cells were washed with a warm clear DMEM medium (with 10% FBS) and incubated in culture media containing TMRM (working solution 100 nM) for 30 min at 37 °C. Cells were then washed with a warm clear FBS-free DMEM medium (3 times) before imaging. Images were obtained with Zeiss LSM 800 with AiryScan Confocal (λex = 548 nm, λem = 573 nm). During each experiment, 6 field images were obtained for each experimental group. Images were analyzed using Image J software, and all cells in each image were selected for fluorescence intensity measurement (cell-free space was also measured as blank). H9c2 signal intensity was set to 100% and signal intensity for all the other cell lines was shown as a percentage of that of H9c2.
The experiments were independently repeated three times (n = 3 biological replicates). Data are […]
Figure S24. Representative TMRM images for mitochondrial membrane potential (MMP) in H9c2 and HepG2 cells with APT-1 and APT-1-TPP treatment under DOX stress. Ctl = vehicle (medium with 0.01% […]
(1 picture or pasted object on this page, not shown here)

[3] = test system: H9c2 cells; experiment: Intracellular ATP levels (CellTiter-Glo) under DOX; type: cell-based; settings: DOX 5 μM, 24 h
Experimental: as §6, §7
Briefly, H9c2 cells and HepG2 cells were seeded in 96-well white-bottom plate (Alkali Scientific, SKU:TPW9096, TC-treated) at 5000 cells/well. After treatment (Ctrl, 5 μM DOX alone, 4 h pretreatment of 25 μM APT-1 + 24 h cotreatment with 5 μM DOX, and 4 h pretreatment of 25 μM APT-1-TPP + 24 h cotreatment with 5 μM DOX, in clear DMEM medium with 10% FBS), cells were equilibrated at rt for 30 min before CellTiter-Glo® reagent was added to each well. Plates were then placed on an orbital shaker for 2 min and incubated at rt for another 20 min.
Chemiluminescence was measured using Tecan plate reader (SPARK Part No. 30124664 Version 1.7, serial No. 1909010319). Cellular AT P concentration was calculated based on the AT P calibration curve and normalized to cell count. […] Each treatment condition was performed in 6 technical replicates per biological replicate, and the experiment was independently repeated three times (n = 3 biological replicates).
Data are presented as mean ± SEM. […]

[4] = test system: H9c2 cells; experiment: Cytoprotection against DOX-induced toxicity, CCK-8 assay; type: cell-based; settings: 4 h pretreatment, then 24 h co-treatment with DOX 5 μM
Experimental: as §1, §2, §3, §4, §5

[5] = Aqueous stability of RSSH precursors in PBS; type: physicochemical; settings: PBS pH 7.4, 37 °C, over 9 h
Experimental: We synthesized AST-2 as an esterase-sensitive RSSH donor via reaction of N-acetylpenicillamine methyl ester with methoxycarbonyl sulfenyl chloride in dichloromethane at 0 °C, affording the product in 72% yield (see Scheme S1). We first evaluated the aqueous stability of AST-2 in phosphate-buffered saline (PBS, pH 7.4) at 37 °C.
APT-1 was synthesized in 93% overall yield via a one-pot two-step sequence: N-acetylpenicillamine methyl ester was reacted with chlorocarbonylsulfenyl chloride to afford an S-perthiocarbonyl chloride intermediate, which was subsequently treated with 2-acetoxy-N-methylethan-1-aminium chloride in the presence of triethylamine (see Supporting Information).
We first evaluated the aqueous stability of the mitochondria-targeted analogs AST-2-TPP and APT-1-TPP. […] APT-1-TPP similarly retained excellent stability, with < 5% degradation over 41 h (Figure S1D).

COc1cccc2c1C(=O)c1c(O)c3c(c(O)c1C2=O)C[C@@](O)(C(=O)CO)C[C@@H]3O[C@H]1C[C@H](N)[C@H](O)[C@H](C)O1 [DOX, Doxorubicin]
viability at 24 h, 5 µM [1]: ~50% | MMP, DOX alone [2]: ca. 50 % of control | ATP level, DOX alone [3]: significantly depleted ATP

COC(=O)[C@@H](NC(C)=O)C(C)(C)S [Pen-SH, N-acetyl penicillamine methyl ester, reference compound]
protection against DOX-induced cytotoxicity [4]: failed to mitigate DOX-induced cytotoxicity

COC(=O)C(NC(C)=O)C(C)(C)SSC(=O)Oc1ccccc1 (centres unmarked) [AST-1, reference compound]
decomposition (aqueous stability) [5]: complete degradation
